From patent US5273991A, “Imidazole-containing compositions and methods of use thereof analogs of distamycin” (Research Corporation Technologies, Inc., priority 1992, dated 1993)

Legend:
[1] = system: human chronic myelogenous leukemic K562 cells; assay: growth inhibition of K562 cells (MTT viability assay); type: cell-based; details: 1 hour drug exposure at 37° C.; 5-6 days; MTT
Method: The ability of the compounds of the present invention to inhibit the growth of human chronic myelogenous leukemic K562 cells was determined as follows.
The incubation was terminated by centrifugation (5 minutes, 300 g) and the cells washed once with drug-free medium.
Following the appropriate drug treatment, the cells were transferred to 96-well microtiter plates, 10^4 cells per well, 8 wells per sample. Plates were then kept in the dark at 37° C. in a humidified atmosphere containing 5% CO2. […] Following incubation of the plates of 5-6 days (to allow control cells to increase in the number by 10 fold) 20 μL of a 5 mg/mL solution of MTT in phosphate buffered saline was added to each well and the plates further incubated for 5 h. The plates were then centrifuged for 5 minutes at 300 g and the bulk of the medium pipetted from the cell pellet leaving 10-20 μL per well. 200 μL DMSO was added to each well and the samples agitated to ensure complete mixing. The optical density was then read at a wavelength of 550 nm on a Titertek Multiscan ELISA plate reader and the dose-response curve constructed.

T4 coliphage DNA = assay: ethidium displacement assay, T4 coliphage DNA; type: binding; details: ± 0.02 × 10^5 M^-1, pH 7.4
Description: (§1) The ethidium displacement assay is based on the fact that ethidium binding to DNA causes a large (approximately 25 fold) florescence enhancement as a result of the hydrophobic environment surrounding the ethidium molecule. Displacement of ethidium results in decreased fluorescence, and thus binding constants of drugs to DNA can be estimated and compared by measuring the loss of fluorescence as a function of added drug. The drug concentration which produces 50% inhibition of florescence is approximately inversely proportional to the apparent binding constant.
The apparent binding constants for T4 coliphage DNA are an indicator of the minor groove selectivity of the compounds of the present invention. The major groove of T4 coliphage DNA is blocked by α-glycosylation of the 5-hydroxymethylcytidine residues; therefore, the non-intercalating agents that bind to T4 coliphage DNA must interact in the minor groove [Lown (1982) Acc. Chem. Res., 15, 381].
(§2) The relative DNA binding constants (Kapp) of distamycin and Compounds 6-10 to calf thymus DNA, T4 coliphage DNA, poly(dAdT) and poly(dGdC) were determined using the ethidium displacement assay (Morgan et al., 1979). The Kapp of ethidium bromide (Debart et al., 1989) is included for comparison. 25 μL of a 2A260 DNA solution was added to 2 mL of ethidium bromide buffer (250 μL of 1.3 mM ethidium bromidestock, 314.9 mg Tris-HCl, 60.8 mg Tris base and 930/mg of Na2 EDTA.2H2 O in 250 ml H2 O) pH 7.4 and the maximum fluorescence was measured (excitation wavelength=546 nm, emission wavelength=600 nm) at ambient temperature.
(§3) DNA solutions of 2A260 were prepared as follows: T4 coliphage DNA: 10 units of DNA were dissolved in 1 mL of 10 mM sodium phosphate (pH 7.1) and 0.25 mM EDTA buffer to give a 10A260 solution. 0.3 mL of the stock solution were diluted to 1.5 mL with 10 mM sodium phosphate (pH 7.1) and 0.25 mM EDTA buffer to give a 2A260 solution. Calf thymus DNA: 100 units of DNA were dissolved in 5 mL of 10 mM sodium phosphate (pH 7.1) and 0.25 mM EDTA buffer to give a 20A260 solution. 1.5 mL of the stock solution were diluted to 15 mL with 10 mM sodium phosphate (pH 7.1) and 0.25 mM EDTA buffer to give a 2A260 solution. Poly(dA-dT) and Poly(dG-dC) DNA: 100 units of DNA were dissolved in 10 mL of 10 mM sodium phosphate pH 7.1) and 0.25 mM EDTA buffer to give a 10A260 solution. 3 mL of the stock solution were diluted to 15 mL with 10 mM sodium phosphate (pH 7.1) and 0.25 mM EDTA buffer to give a 2A260 solution.
(§4) Aliquots of 10 mM stock drug solution (1 mg of drug to be tested was dissolved with 1 mole equivalent of 0.1M HCl, and then diluted with appropriate volume of distilled water to make a 10 mM solution) were then added to the fluorescing solution and the florescence measured after each addition until a 50% reduction of fluorescence occurred. If the 10 mM stock solution lowered the % fluorescence too quickly, the stock solution was further diluted to 1 mM prior to titration. The apparent binding constant was then calculated from this equation: KEtBr [EtBr]=Kapp [drug], where [drug]=the concentration of drug at a 50% reduction of fluorescence and KEtBr [1×10^7 M^-1 for calf thymus and coliphage T4 DNA^18, 9.5×10^6 M^-1 for poly(dA.dT)^30, and 9.9×10^6 M^-1 for poly(dG.dC)^30 ] and [EtBr] were known. The concentration of ethidium bromide was 1.3 μM. The Kapp values are shown in Table I. In a separate experiment, the Kapp of Compound 5 for calf thymus DNA and poly[dGdC] were determined to be 0.3×10^5 M^-1 and 2.6×10^5 M^-1, respectively. The error in these measurements is ±[…].

calf thymus DNA = assay: ethidium displacement assay, calf thymus DNA; type: binding; details: ± 0.02 × 10^5 M^-1, pH 7.4
Description: as §1, §2, §3, §4

poly(dA.dT) = assay: circular dichroism (CD) titration, poly(dA.dT); type: binding; details: for CD titration result in words: r' up to ~1.0
Method: The DNA binding properties of the present compounds were assessed by circular dichroism (CD) titration experiments. Methods for CD titration can be found, for example, in Zimmer et al. (1986) Prog. Biophys. Molec. Biol 47, 31. The conformation of DNA can be readily determined by CD experiments, and for B-DNA, characteristic positive and negative Cotton effects are observed at 260 and 245 nm, respectively.
The interaction of Compounds 6-10 to a number of DNAs [calf thymus, poly(dA dT) and poly(dG dC)] were analyzed by CD titration studies. All the CD titration experiments were performed using identical procedures, concentrations of DNA, and increments of drug:DNA ratios (or `r`, i.e. moles of drug to moles of DNA base pairs). Therefore, the differences observed in the CD spectra for the titration of each of the compounds to the polydeoxynucleotides may be directly compared to reflect their DNA binding properties.
All experiments were performed with a continuous flow of nitrogen purging the polarimeter. A 1 mm path length jacketed cell was used and all experiments were done at room temperature. Initially, DNA [0.02 μ moles (base pairs), 130 μL] was placed in the cell and the spectrum of the DNA alone was collected. Aliquots of drug were added and the spectra collected. […] The scan parameters were set and standard for all experiments. The spectra were collected from 400 nm to 200 nm. The sensitivity was set at 1 mdeg and the scan speed was set at 20 nm per minute. Three scans were accumulated and automatically averaged by the computer. The λmax and ellipticity (mdeg) for each spectrum were collected from the raw scans and the final plots were smoothed by the noise reduction program on the computer. […] The induced CD band is presumably due to the uv absorption π to π^* transition of the drug in the drug:DNA complex. […] Therefore interaction of these drugs with DNA causes only minor conformational changes in the double helix.

With CN(C)CCNC(=O)c1nc(NC(=O)c2nc(NC(=O)c3ccc(N(CCCl)CCCl)cc3)cn2C)cn1C [Compound 6, N-(N',N'-dimethylaminoethyl)-1-methyl-4-{4-[4,4-bis(2-chloroethyl)aminobenzamido]-1-methylimidazole-2-carboxamido}imidazole-2-carboxamide] the IC50 [1] was 12.5 µM, the “Association constant Kapp” value (T4 coliphage DNA) was 236000 M⁻¹ and the “Association constant Kapp” value (calf thymus DNA) was 456000 M⁻¹. For the same compound, the “induced negative CD band, ellipticity” value (poly(dA.dT); 310 nm, r'=0.2) was 0.4 mdeg, the “induced positive CD band, ellipticity” value (poly(dA.dT); 350 nm, r'=0.2) was 1.8 mdeg and the isobestic point (poly(dA.dT); poly(dA.dT)) was 315 nm.
With CN(C)CCNC(=O)c1nc(NC(=O)c2nc(NC(=O)c3nc(NC(=O)c4ccc(N(CCCl)CCCl)cc4)cn3C)cn2C)cn1C [Compound 7, N-(N',N'-dimethylaminoethyl)-1-methyl-4-{1-methyl-4-[4-(4,4-bis-(2-chloroethyl)aminobenzamido)-1-methylimidazole-2-carboxamido]imidazole-2-carboxamido}imidazole-2-carboxamide] the IC50 [1] was 0.3 µM, the “Association constant Kapp” value (T4 coliphage DNA) was 168000 M⁻¹ and the “Association constant Kapp” value (calf thymus DNA) was 591000 M⁻¹. The “CD titration result in words” value (poly(dA.dT)) was “minor changes in the CD spectrum”.
In the case of CN(C)CCNC(=O)c1nc(NC(=O)c2nc(NC(=O)c3nc(NCc4ccc(N(CCCl)CCCl)cc4)cn3C)cn2C)cn1C [Compound 8, N-(N',N'-dimethylaminoethyl)-1-methyl-4-{1-methyl-4-[4-(4,4-bis-(2-chloroethyl)aminobenzylamino)-1-methylimidazole-2-carboxamido]imidazole-2-carboxamido}imidazole-2-carboxamide], the IC50 [1] is reported as 0.85 µM, the “Association constant Kapp” value (T4 coliphage DNA) is reported as 193000 M⁻¹ and the “Association constant Kapp” value (calf thymus DNA) is reported as 473000 M⁻¹. For the same compound, the “CD titration result in words” value (poly(dA.dT)) was “did not produce any changes in the CD spectrum”.
For CN(C)CCNC(=O)c1nc(NC(=O)c2nc(NC(=O)CCCc3ccc(N(CCCl)CCCl)cc3)cn2C)cn1C [Compound 9, N-(N',N'-dimethylaminoethyl)-1-methyl-4-{4-[4,4-bis(2-chloroethyl)aminophenyl-1-butanamido]-1-methylimidazole-2-carboxamido}imidazole-2-carboxamide], the IC50 [1] was 70 µM, the “Association constant Kapp” value (T4 coliphage DNA) was 75000 M⁻¹ and the “Association constant Kapp” value (calf thymus DNA) was 64000 M⁻¹.
For CN(C)CCNC(=O)c1nc(NC(=O)c2nc(NC(=O)c3nc(NC(=O)CCCc4ccc(N(CCCl)CCCl)cc4)cn3C)cn2C)cn1C [Compound 10, N-(N',N'-dimethylaminoethyl)-1-methyl-4-{1-methyl-4-[4-(4,4-bis(2-chloroethyl)aminophenyl-1-butanamido)-1-methylimidazole-2-carboxamido]imidazole-2-carboxamido}imidazole-2-carboxamide], the IC50 [1] was 28 µM, the “Association constant Kapp” value (T4 coliphage DNA) was 19000 M⁻¹ and the “Association constant Kapp” value (calf thymus DNA) was 22000 M⁻¹. The “negative Cotton effect band, ellipticity” value (poly(dA.dT); 315 nm, equimolar titration) was -0.8 mdeg.
